Values of other authors as cited in US20240285773A1, “METHODS OF TREATING MYELODYSPLASTIC SYNDROME AND MONITORING THE TREATMENT” (Geron Corporation, priority 2023, published 2024).

System: patients with del(5q) MDS
Details: cited from earlier work

Q: For `Nc1cccc2c1CN(C1CCC(=O)NC1=O)C2=O` (stereo not shown) [lenalidomide, 3-(4-Amino-1-oxoisoindolin-2-yl)piperidine-2,6-dione], which “Transfusion independence, proportion of patients” value is on record?
A: two-thirds
